CC(CO)(CO)C(=O)O
solubility (mole fraction)
Settings	in 1,4-dioxane	in MIBK	in cyclopentyl methyl ether	in ethyl acetate	in gamma-butyrolactone	in gamma-valerolactone	in n-butyl acetate
298.15 K	0.00778	0.0149	0.00164	0.00368	0.00637	0.00643	0.00173
303.15 K	0.00937	0.0164	0.00194	0.00388	0.00793	0.008	0.00199
308.15 K	0.0124	0.0172	0.00239	0.00447	0.00942	0.00913	0.00234
313.15 K	0.0147	0.0186	0.00276	0.00507	0.012	0.0107	0.00268
318.15 K	0.0178	0.0192	0.00329	0.00646	0.0148	0.0124	0.00294
323.15 K	0.0219	0.0202	0.00366	0.00745	0.0187	0.0146	0.00381
328.15 K	0.0258	0.022	0.00381	0.00824	0.0214	0.0183	0.00433
333.15 K	0.0334	0.0244	0.00433	0.0124	0.026	0.0218	0.00528
338.15 K	0.0365	0.0259	0.00501	0.0147	0.0315	0.0251	0.00572
343.15 K	0.041	0.0274	0.00598	–	0.0367	0.0305	0.00685
345.15 K	0.0442	–	–	–	0.0392	0.0324	–
348.15 K	0.0479	0.0288	0.00621	–	0.042	0.037	0.00763
350.15 K	0.0501	–	–	–	0.048	0.0386	–
353.15 K	0.0535	0.0296	0.00906	–	0.0529	0.0406	0.00902
